Measured values reported in patent publication US20220324865A1 (Bayer Aktiengesellschaft, priority 2018, published 2022).

Each compound was assayed against T1, human EP3 receptor (Homo sapiens, UniProt P43115) (assay: Cellular in vitro assay for determining EP3 receptor activity (human EP3 cell line, sulprostone-stimulated calcium luminescence)). Settings: CHO cells expressing human EP3 and mitochondrial Clytin; antagonist mode, sulprostone at EC50; read-out: EP3 CHO mtCLY ANTAG IC50.
T1 construct: expressed in transfected cells; host or cells: CHO K1 (Chinese Hamster Ovary), stably co-transfected with Galpha16 and mitochondrial clytin
T1 sequence (P43115 1-390): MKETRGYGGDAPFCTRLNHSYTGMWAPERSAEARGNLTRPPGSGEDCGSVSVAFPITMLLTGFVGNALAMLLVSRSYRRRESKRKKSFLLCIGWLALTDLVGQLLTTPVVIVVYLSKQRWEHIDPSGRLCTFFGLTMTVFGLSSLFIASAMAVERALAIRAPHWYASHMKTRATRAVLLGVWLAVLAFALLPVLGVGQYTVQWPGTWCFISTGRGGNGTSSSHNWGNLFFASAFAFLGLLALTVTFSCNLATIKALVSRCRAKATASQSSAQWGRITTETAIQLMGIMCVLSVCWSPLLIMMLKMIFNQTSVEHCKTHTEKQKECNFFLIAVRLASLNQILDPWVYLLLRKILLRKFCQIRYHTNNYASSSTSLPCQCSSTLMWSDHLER
Format: cell-based
Outline: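 Antagonist activity was measured as inhibition of the luminescent calcium signal elicited by EC50 sulprostone, following 10 min compound pretreatment. The cell line was recombinant CHO K1 co-expressing human EP3, Gα16 and the photoprotein Clytin, reconstituted with coelenterazine.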

IC50 [nM] | SMILES
0.725 | COCc1c(C(=O)N[C@H](CCO)c2ccccc2)nn2cc(-c3ccc4ccccc4c3)[nH]c(=O)c12 [Example 1-76, N-[(1R)-3-Hydroxy-1-phenylpropyl]-3-(methoxymethyl)-6-(naphthalen-2-yl)-4-oxo-4,5-dihydropyrazolo[1,5-a]pyrazine-2-carboxamide]
0.85 | Cc1cccc2ncc(-c3cn4nc(C(=O)NCCn5ccc(C6CC6)n5)c(C(C)C)c4c(=O)[nH]3)cc12 [Example 4-40, N-[2-(3-Cyclopropyl-1H-pyrazol-1-yl)ethyl]-6-(5-methylquinolin-3-yl)-4-oxo-3-(propan-2-yl)-4,5-dihydropyrazolo[1,5-a]pyrazine-2-carboxamide]
9.75 | Cc1nn(C(CNC(=O)c2cc3c(=O)[nH]c(-c4ccc5ccccc5c4)cn3n2)C(C)C)c(C)c1Cl (stereo not drawn) [Example 2-20, N-[2-(4-Chloro-3,5-dimethyl-1H-pyrazol-1-yl)-3-methylbutyl]-6-(2-naphthyl)-4-oxo-4,5-dihydropyrazolo[1,5-a]pyrazine-2-carboxamide]
2.15 | C[C@@H](NC(=O)c1cc2c(=O)[nH]c(-c3ccc4ccccc4c3)cn2n1)c1ccc2ccccc2c1 [Example 2-41, 6-(2-Naphthyl)-N-[(7R)-1-(2-naphthyl)ethyl]-4-oxo-4,5-dihydropyrazolo[1,5-a]pyrazine-2-carboxamide]
3.55 | CC(C)(O)[C@@H](NC(=O)c1nn2cc(-c3ccc(Cl)cc3)[nH]c(=O)c2c1C1CC1)c1ccc(F)cc1 [6-676]
1.85 | Cc1cccc2ncc(-c3cn4nc(C(=O)NCCOCC(F)(F)F)c(C(C)C)c4c(=O)[nH]3)cc12 [Example 4-39, 6-(5-Methylquinolin-3-yl)-4-oxo-3-(propan-2-yl)-N-[2-(2,2,2-trifluoroethoxy)ethyl]-4,5-dihydropyrazolo[1,5-a]pyrazine-2-carboxamide]
0.89 | Cc1ccc(-c2cn3nc(C(=O)N[C@@H](c4ccc(F)cc4)C(C)(C)O)c(C)c3c(=O)[nH]2)cc1F [Example 1-162, 6-(3-Fluoro-4-methylphenyl)-N-[(1S)-1-(4-fluorophenyl)-2-hydroxy-2-methylpropyl]-3-methyl-4-oxo-4,5-dihydropyrazolo[1,5-a]pyrazine-2-carboxamide]
1.45 | Cc1cccc2ncc(-c3cn4nc(C(=O)NC(CCO)c5ccccc5Cl)c(C(C)C)c4c(=O)[nH]3)cc12 (stereo not drawn) [Example 4-44, N-[1-(2-Chlorophenyl)-3-hydroxypropyl]-3-isopropyl-6-(5-methyl-3-quinolyl)-4-oxo-5H-pyrazolo[1,5-a]pyrazine-2-carboxamide]
0.74 | O=C(NC1(c2ccc(F)cc2)CN(CC(F)(F)F)C1)c1nn2cc(-c3ccc(Cl)c(F)c3)[nH]c(=O)c2c1C1CC1 [6-103]
